From patent US11452725B2, “Chiral diaryl macrocycles and uses thereof” (TURNING POINT THERAPEUTICS, INC., priority 2015, dated 2022)

Key:
[1] = target: T1, FAK (Homo sapiens, UniProt Q05397); assay: KINOMEscan kinase binding assay (DiscoveRx)
Experimental: (§1) Kinase binding assays were performed at DiscoveRx using the general KINOMEscan Kd Protocol (Fabian, M. A. et al., “A small molecule-kinase interaction map for clinical kinase inhibitors,” Nat. Biotechnol. 2005, 23(3):329-36). For most assays, kinase-tagged T7 phage strains were prepared in an E. coli host derived from the BL21 strain. E. coli were grown to log-phase and infected with T7 phage and incubated with shaking at 32° C. until lysis. The lysates were centrifuged and filtered to remove cell debris. The remaining kinases were produced in HEK-293 cells and subsequently tagged with DNA for qPCR detection. […] The liganded beads were blocked with excess biotin and washed with blocking buffer (SeaBlock (Pierce), 1% BSA, 0.05% Tween 20, 1 mM DTT) to remove unbound ligand and to reduce nonspecific binding. […] All reactions were performed in polystyrene 96-well plates in a final volume of 0.135 mL. […] The kinase concentration in the eluates was measured by qPCR.
(§2) Binding constants (Kds) were calculated with a standard dose-response curve using the Hill equation: Response=Background+(Signal−Background)/(1+(Kd^Hill Slope/Dose^Hill Slope)) The Hill Slope was set to −1. Curves were fitted using a non-linear least square fit with the Levenberg-Marquardt algorithm.

[2] = target: ARK5 (Homo sapiens, UniProt O60285); assay: KINOMEscan kinase binding assay (DiscoveRx)
Experimental: as §1, §2

[3] = tested on: STAT5; assay: Immunoblotting cellular phosphorylation assay, SET-2 cells (JAK2 V617F); format: cell-based; details: Homo sapiens, SET-2, 4 h, 4 hours treatment, read-out: STAT5 phosphorylation of SET-2 cell line IC50
Experimental: NSCLC cell line H2228 (harboring endogenous EML4-ALK fusion gene), HCC78 cells (harboring endogenous SLC34A2-ROS1 fusion gene), Karpas-299 cells (harboring endogenous NPM-ALK fusion gene) or SET-2 (harboring endogenous JAK2V617F activating mutation) were cultured in RPMI medium, and KM12 (harboring endogenous TPM3-TRKA fusion gene) cell line was cultured in DMEM medium, both supplemented with 10% fetal bovine serum and 100 U/mL of penicillin/streptomycin. Ba/F3 and NIH3T3 cells stably expressing ALK or ROS1 (WT or mutant) were culture as mentioned above. […] Protein lysates (approximately 20 μg) was resolved on 4-12% Bolt Bis-Tris precasted gels with MES running buffer (Life Technologies), transferred to nitrocellulose membranes using Trans-Blot Turbo Transfer System (Bio-Rad) and detected with antibodies targeting phosphorylated ALK Y1604 (Cell Signaling Technology), total ALK (Cell Signaling Technology), phosphorylated ROS1 and total ROS1 (Cell Signaling Technology), phosphorylated TRK A/B (Cell Signaling Technology), total TRKA antibody (Santa Cruz Biotechnology), phosphorylated STAT3 and STAT5, total STAT3 and STAT5 (Cell Signaling Technology), phosphorylated AKT (Cell Signaling Technology), total AKT (Cell Signaling Technology), phosphorylated ERK (Cell Signaling Technology), total ERK (Cell Signaling Technology) and Tubulin (Sigma). […]

[4] = target: T2, FGR (Homo sapiens, UniProt P09769); assay: Biochemical kinase assay (Reaction Biology); details: 10 μM ATP
T2 construct: purchased Reaction Biology Corporation

[5] = target: T3, PLK4 (Homo sapiens, UniProt O00444); assay: Biochemical kinase assay (Reaction Biology); details: 10 μM ATP
T3 construct: purchased Reaction Biology Corporation (contract assay)

[6] = target: T4, TYK2 (Homo sapiens, UniProt P29597); assay: Biochemical kinase assay (Reaction Biology); details: 10 μM ATP
T4 construct: purchased Reaction Biology Corporation (contract assay)

[7] = tested on: Ba/F3 CD74-ROS1 G2032R cell line; assay: Cell proliferation assay (CellTiter-Glo); format: cell-based; details: Mus musculus, BaF3; 72 hours
[8] = target: T1, FAK; assay: Immunoblotting cellular kinase phosphorylation assay, NCI-H2228 cells; format: cell-based; details: 4 hours treatment; read-out: FAK phosphorylation of NCI-H2228 cell line IC50
Experimental: (§3) NSCLC cell line H2228 (harboring endogenous EML4-ALK fusion gene) was cultured in RPMI medium supplemented with 10% fetal bovine serum and 100 U/mL of penicillin/streptomycin. Ba/F3 and NIH3T3 cells stably expressing ROS1, or TRKA, or TRKB, or TRKC (WT or mutant) were cultured as mentioned above. […] Cells were collected after treatment and lysed in RIPA buffer (50 mM Tris, pH 7.4, 150 mM NaCl, 1% NP-40, 0.5% Deoxycholate, 0.1% SDS) supplemented with 10 mM EDTA, 1× Halt protease and phosphatase inhibitors (Thermo Scientific). Protein lysates (approximately 20 μg) was resolved on 4-12% Bolt Bis-Tris precasted gels with MES running buffer (Life Technologies), transferred to nitrocellulose membranes using Trans-Blot Turbo Transfer System (Bio-Rad) and detected with antibodies targeting phosphorylated phosphorylated ROS1 and total ROS1 (Cell Signaling Technology), phosphorylated TRK A/B (Cell Signaling Technology), total TRKA antibody (Santa Cruz Biotechnology), phosphorylated SRC Y416 (Cell Signaling Technology), total SRC (Cell Signaling Technology), phosphorylated FAK Y576/577 (Cell Signaling Technology), total FAK (Cell Signaling Technology), phosphorylated paxillin Y118 (Cell Signaling Technology), total paxillin (Cell Signaling Technology), phosphorylated EGFR and total EGFR, CD44, and Tubulin (Sigma). […]

[9] = target: T5, PYK2 (Homo sapiens, UniProt Q14289); assay: Biochemical kinase assay (Reaction Biology); details: 10 μM ATP
T5 construct: purchased Reaction Biology Corporation (contract assay)

[10] = tested on: paxillin; assay: Immunoblotting SRC substrate phosphorylation, NCI-H2228 cells; format: cell-based; details: Homo sapiens; NCI-H2228 cell line
Experimental: as §3

T1 sequence (Q05397 whole entry): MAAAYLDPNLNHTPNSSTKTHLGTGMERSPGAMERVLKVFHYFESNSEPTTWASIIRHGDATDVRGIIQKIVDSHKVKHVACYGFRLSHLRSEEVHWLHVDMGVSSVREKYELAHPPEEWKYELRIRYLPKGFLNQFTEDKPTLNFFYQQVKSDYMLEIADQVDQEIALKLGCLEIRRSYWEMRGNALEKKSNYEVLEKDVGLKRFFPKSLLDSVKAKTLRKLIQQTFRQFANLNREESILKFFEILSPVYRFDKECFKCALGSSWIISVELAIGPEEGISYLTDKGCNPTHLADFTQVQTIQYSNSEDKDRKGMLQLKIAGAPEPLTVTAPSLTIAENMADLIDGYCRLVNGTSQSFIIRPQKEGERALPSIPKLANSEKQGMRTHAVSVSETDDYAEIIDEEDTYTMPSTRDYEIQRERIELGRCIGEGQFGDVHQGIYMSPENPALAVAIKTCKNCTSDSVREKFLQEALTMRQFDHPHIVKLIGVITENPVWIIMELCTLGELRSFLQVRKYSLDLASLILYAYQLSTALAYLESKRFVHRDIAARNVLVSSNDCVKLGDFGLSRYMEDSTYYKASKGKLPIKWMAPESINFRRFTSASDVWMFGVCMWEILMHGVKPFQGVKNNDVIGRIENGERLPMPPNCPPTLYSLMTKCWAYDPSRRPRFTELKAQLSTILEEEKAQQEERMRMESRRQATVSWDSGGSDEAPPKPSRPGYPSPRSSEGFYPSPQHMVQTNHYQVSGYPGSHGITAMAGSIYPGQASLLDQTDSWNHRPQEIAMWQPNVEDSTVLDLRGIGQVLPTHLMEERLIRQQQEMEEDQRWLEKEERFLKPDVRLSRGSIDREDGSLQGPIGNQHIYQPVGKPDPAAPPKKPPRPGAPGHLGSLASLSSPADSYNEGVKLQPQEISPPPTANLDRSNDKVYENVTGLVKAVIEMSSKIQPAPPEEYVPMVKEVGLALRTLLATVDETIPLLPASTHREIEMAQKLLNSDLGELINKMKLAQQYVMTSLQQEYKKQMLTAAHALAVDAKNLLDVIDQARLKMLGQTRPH
T2 sequence (P09769 whole entry): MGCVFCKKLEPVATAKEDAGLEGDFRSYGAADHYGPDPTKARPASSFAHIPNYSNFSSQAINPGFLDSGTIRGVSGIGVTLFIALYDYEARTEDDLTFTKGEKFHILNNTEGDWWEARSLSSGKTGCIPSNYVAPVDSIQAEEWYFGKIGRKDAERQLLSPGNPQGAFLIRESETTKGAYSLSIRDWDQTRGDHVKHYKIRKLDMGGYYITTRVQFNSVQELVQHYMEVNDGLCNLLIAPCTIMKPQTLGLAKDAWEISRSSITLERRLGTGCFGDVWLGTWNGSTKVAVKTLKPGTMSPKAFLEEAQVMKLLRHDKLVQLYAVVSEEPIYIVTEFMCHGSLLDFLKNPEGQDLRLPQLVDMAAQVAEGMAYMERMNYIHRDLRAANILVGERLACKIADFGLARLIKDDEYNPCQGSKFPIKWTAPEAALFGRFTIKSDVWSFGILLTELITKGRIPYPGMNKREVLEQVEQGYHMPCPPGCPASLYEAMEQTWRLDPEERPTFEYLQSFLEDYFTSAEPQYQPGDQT
T3 sequence (O00444 whole entry): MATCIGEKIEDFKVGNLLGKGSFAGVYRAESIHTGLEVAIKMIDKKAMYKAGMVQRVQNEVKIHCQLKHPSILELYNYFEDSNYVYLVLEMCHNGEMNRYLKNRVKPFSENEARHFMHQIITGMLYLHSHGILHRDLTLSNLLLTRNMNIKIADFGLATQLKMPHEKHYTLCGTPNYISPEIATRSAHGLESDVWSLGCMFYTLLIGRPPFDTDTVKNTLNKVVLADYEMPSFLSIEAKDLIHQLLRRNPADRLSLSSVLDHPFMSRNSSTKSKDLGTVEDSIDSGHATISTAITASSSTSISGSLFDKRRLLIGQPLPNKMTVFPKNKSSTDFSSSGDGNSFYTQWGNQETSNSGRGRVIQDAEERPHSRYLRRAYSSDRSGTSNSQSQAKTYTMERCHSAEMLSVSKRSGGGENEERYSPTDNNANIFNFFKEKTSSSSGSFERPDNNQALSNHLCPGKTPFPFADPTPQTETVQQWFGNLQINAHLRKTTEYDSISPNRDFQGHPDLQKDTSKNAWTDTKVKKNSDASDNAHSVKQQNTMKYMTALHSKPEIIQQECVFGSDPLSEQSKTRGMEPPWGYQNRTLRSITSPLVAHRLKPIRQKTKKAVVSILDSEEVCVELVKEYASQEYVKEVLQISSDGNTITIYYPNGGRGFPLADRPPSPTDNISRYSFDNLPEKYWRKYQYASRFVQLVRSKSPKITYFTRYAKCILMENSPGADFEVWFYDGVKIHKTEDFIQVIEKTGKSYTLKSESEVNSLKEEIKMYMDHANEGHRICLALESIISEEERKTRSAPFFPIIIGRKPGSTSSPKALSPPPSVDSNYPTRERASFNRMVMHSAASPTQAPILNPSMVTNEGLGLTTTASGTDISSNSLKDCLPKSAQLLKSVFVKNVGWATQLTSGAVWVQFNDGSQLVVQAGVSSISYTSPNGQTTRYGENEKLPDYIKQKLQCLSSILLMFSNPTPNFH
Sequence of ARK5 (O60285 whole entry): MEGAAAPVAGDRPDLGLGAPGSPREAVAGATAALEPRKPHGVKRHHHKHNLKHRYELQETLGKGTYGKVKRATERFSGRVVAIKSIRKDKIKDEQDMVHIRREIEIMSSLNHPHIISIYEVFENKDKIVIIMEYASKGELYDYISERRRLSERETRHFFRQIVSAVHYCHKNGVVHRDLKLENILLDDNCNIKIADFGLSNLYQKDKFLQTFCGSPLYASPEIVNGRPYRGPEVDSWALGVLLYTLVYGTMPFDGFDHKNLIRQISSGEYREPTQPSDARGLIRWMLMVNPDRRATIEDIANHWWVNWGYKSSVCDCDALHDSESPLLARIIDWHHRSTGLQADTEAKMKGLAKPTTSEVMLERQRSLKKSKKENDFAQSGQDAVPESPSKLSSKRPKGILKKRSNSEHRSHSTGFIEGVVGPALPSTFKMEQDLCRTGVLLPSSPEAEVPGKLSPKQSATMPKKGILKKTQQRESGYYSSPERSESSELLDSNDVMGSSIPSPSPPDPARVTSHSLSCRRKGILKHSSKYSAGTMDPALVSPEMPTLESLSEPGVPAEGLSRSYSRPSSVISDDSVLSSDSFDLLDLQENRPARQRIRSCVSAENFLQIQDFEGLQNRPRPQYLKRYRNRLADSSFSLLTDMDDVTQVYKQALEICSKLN
T5 sequence (Q14289 whole entry): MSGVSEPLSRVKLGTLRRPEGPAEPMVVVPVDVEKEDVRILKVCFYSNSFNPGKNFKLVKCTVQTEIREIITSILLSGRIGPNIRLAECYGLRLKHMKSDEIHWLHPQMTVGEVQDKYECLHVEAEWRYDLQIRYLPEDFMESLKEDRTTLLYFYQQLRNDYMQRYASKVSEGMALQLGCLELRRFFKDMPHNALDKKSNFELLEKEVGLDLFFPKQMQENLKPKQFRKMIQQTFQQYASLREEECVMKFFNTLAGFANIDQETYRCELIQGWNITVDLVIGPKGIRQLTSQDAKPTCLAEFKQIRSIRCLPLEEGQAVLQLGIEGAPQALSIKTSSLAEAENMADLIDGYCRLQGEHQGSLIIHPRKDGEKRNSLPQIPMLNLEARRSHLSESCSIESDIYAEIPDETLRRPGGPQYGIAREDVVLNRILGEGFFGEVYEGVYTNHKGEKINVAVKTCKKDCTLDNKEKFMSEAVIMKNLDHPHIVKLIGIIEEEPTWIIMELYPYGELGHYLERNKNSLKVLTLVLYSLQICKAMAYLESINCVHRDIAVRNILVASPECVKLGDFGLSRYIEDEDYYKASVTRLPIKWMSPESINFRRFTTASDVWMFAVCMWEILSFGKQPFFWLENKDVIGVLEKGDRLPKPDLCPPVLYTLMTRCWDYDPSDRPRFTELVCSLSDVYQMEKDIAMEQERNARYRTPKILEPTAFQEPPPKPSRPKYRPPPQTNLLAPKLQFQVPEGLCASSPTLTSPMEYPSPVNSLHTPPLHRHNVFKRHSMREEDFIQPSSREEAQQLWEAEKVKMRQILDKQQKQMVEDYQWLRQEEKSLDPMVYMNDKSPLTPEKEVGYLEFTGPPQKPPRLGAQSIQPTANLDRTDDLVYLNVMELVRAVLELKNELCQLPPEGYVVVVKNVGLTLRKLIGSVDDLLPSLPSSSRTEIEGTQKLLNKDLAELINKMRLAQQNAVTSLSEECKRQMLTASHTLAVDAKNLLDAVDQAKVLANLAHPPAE

## C[C@H]1CNC(=O)c2cnn3ccc(nc23)N[C@H](C)c2cc(F)ccc2O1 [Compound 1, (7S,13R)-11-fluoro-7,13-dimethyl-6,7,13,14-tetrahydro-1,15-ethenopyrazolo[4,3-f][1,4,8,10]benzoxatriazacyclotridecin-4(5H)-one]
[1]
  Kd: 27 nM
[2]
  Kd: 3.7 nM
[3]
  IC50: ~158 nM
[4]
  IC50: 3.05 nM
[5]
  IC50: 126 nM
[6]
  IC50: 21.6 nM
[7]
  IC50: […]
[8]
  IC50: 100 nM
[9]
  IC50: 39.9 nM
[10]
  IC50: ~103 nM
